Data set [1] is described as follows: pKa by UV–vis titrations in 30% (v/v) DMSO/H2O. The conditions noted are these: 30% (v/v) DMSO/H2O solvent mixture, I = 0.1 M (KCl), T = 25 °C. It counts as physicochemical. The text has this:
Proton dissociation constants (pKa) of drug molecules indicate the actual protonation state and the charge at a given pH, and therefore pKa are important parameters that affect the pharmacokinetic properties as well.
On the basis of the spectral changes two well-separated deprotonation processes were observed between pH 2 and 11. The first proton dissociation step taking place at pH < 5 is accompanied by a blue shift, and the λmax is shifted from 362 to 322 nm. This deprotonation step is attributed to the proton on the pyridinium nitrogen (PyH^+). Upon an increase of the pH a new process occurred as evidenced by a new band in the range of 350–450 nm (Figure 7b) and an isosbestic point at 350 nm, namely, the deprotonation of the hydrazinic nitrogen. In the strongly basic pH range (pH > 11.2) new broad bands appear at 400–600 nm (Figure 7b) with irreversible spectral changes most likely due to an oxidation of the TSC by the air oxygen.
Therefore, only two pKa values could be determined (Table 1) based on the deconvolution of the UV–vis spectra recorded at pH < 11.2 for HL^1 (molar absorbance spectra are seen in Figure S8a) as the oxidation hindered the accurate determination of the pKa for the aromatic OH group. Two pKa values were computed for HL^2 from the UV–vis titration data (Figure S9) as well; however, only one pKa was obtained in the case of HL^3 (Table 1), namely, that for the deprotonation of the PyH^+, since the proton dissociation of the hydrazinic nitrogen and the oxidation of the TSC were partly overlapped. On the basis of the determined pKa values, it can be concluded that the presence of the electron-donating methyl group in HL^2 results in a significant increase of both pKa values when compared to that of HL^1. A similar behavior was reported for the analogous 2-formylpyridine and 2-acetylpyridine TSC in our previous work.[67] […] All proligands are air-sensitive in the strongly basic pH range (pH > 11).
The metal complexes often undergo transformation processes upon dissolution, such as protonation, deprotonation, or dissociation to a metal-free ligand and metal ion depending on the pH, their concentration, and the solution speciation. The knowledge of the actual chemical form of the biologically active metal complexes in solution close to physiologically relevant conditions is quite important to elucidate the mechanism of action. Therefore, the solution stability of the copper(II) complexes (Cu(HL^1)Cl2, [Cu(L^2)Cl], and Cu(HL^3)Cl2) was studied by UV–vis spectrophotometry. […] At lower pH this type of complex is protonated, and thus the neutral ligand is bound via (Npyridine,N,S) donor atoms, while a mixed hydroxido complex with the (Npyridine,N,S^–)(OH) coordination pattern is formed in the basic pH range. On the basis of the close structural similarities between HL^1–HL^3 and the listed TSCs with a simpler scaffold, the formation of the same type of complexes is feasible. UV–vis titrations were performed with the complexes in a 30% (v/v) DMSO/H2O solvent mixture, and representative spectra are shown for Cu(HL^1)Cl2 in Figure 8. The spectra remain intact in a broad pH range (2.7–7.6), and an absorption band is observed with λmax at 406 nm being typical for a S → Cu charge transfer. This finding indicates the dominant presence of only one kind of complex, which is most probably the species with the (Npyridine,N,S^–) tridentate coordination mode. By decreasing the pH the λmax is hypsochromically shifted to 322 nm. […]

In data set [2] the test system is MRC-5. Description: MTT cytotoxicity assay, MRC-5. It counts as cell-based. The conditions noted are these: Homo sapiens, MRC5, 72 h of exposure. As to the method:
2.5. In vitro cell studies
2.5.1. Cell lines and culture conditions
All cell culture reagents were obtained from Sigma-Aldrich and plastic ware from Sarstedt […]
MRC-5 human embryonal lung fibroblast cell line (ATCC CCL-171) was purchased from LGC
Promochem, Teddington, UK. The cell line was cultured in Eagle’s Minimal Essential Medi um
(EMEM, containing 4.5 g/L glucose) supplemented with a non-essential amino acid mixture, a
selection of vitamins and 10% heat-inactivated fetal bovine serum. The cells were incubated at
37°C, in a 5% CO2, 95% air atmosphere. All cell lines were detached with Trypsin-Versene
(EDTA) solution for 5 min at 37 °C.
The tested compounds were dissolved in DMSO using 10 mM concentration. Then stock solutions
were diluted in complete culture medium in 96-well microtiter plates, and two-fold serial dilutions
of compounds were prepared in 100 µL of RPMI 1640, horizontally. The semi-adherent colonic
adenocarcinoma cells were treated with Trypsin -Versene (EDTA) solution. They were adjusted to
a density of 1×10^4 cells in 100 µL of RPMI 1640 medium, and were added to each well, with the
exception of the medium control wells. The final volume of the wells containing compounds and
cells was 200 µL. The culture were incubated at 37 °C for 72 h; at the end of the incubation period,
20 µL of MTT solution (from a stock solution of 5 mg/mL) were added to each well. After
incubation at 37 °C for 4 h, 100 µL of SDS solution (10% in 0.01 M HCI) were added to each well
and the plates were further incubated at 37 °C overnight. The cell growth was determined using
both methods by measuring the optical density (OD) at 450 nm (ref. 620 nm) with a Multiscan EX
ELISA reader. Inhibition of the cell growth (expressed as IC 50: inhibitory concentration that
reduces by 50% the growth of the cells exposed to the tested compounds) was determined from
the sigmoid curve where 100 – ((ODsample ‒ ODmedium control)/(ODcell control ‒ ODmedium control)) × 100
values were plotted against the logarithm of compound concentrations. […]

Like-named read-outs stand apart in the source and are kept apart here.

In general, IC50 refers to the concentration that gives 50% inhibition. A higher IC50 goes with weaker potency in that assay. In the case of `Cc1cc(NC(=S)NN=Cc2ccccn2)cc(C)c1O` [HL^1, 2-Formylpyridine 4-(4-hydroxy-3,5-dimethylphenyl)thiosemicarbazone], the pKa in data set [1] (read-out: pKa (NNH)) was 10.55 ± 0.01; in data set [1] (read-out: pKa (PyH^+)), 3.01 ± 0.01. The compound also had an IC50 in data set [2] of over 100 µM.

Consider `CC(=NNC(=S)Nc1cc(C)c(O)c(C)c1)c1ccccn1` [HL^2, 2-Acetylpyridine 4-(4-hydroxy-3,5-dimethylphenyl)thiosemicarbazone], for which the values for the pKa in data set [1] (read-out: pKa (NNH)) and in data set [1] (read-out: pKa (PyH^+)) were 11.08 ± 0.02 and 3.59 ± 0.02, respectively. For the same compound, the concentration for half-maximal inhibition (IC50) in data set [2] was over 100 µM.

As to `Cc1cc(NC(=S)NN=Cc2ncccc2N)cc(C)c1O` [HL^3, 3-Amino-2-formylpyridine 4-(4-hydroxy-3,5-dimethylphenyl)thiosemicarbazone], the pKa in data set [1] (read-out: pKa (PyH^+)) came out at 3.95 ± 0.04. In data set [2], this compound displayed an IC50 of over 100 µM.
